SMILES strings stand for the structures.

The series concerns mouse liver microsomes, LC-MS/MS half-life. The series can be described thus: qHTS Assay to Find Inhibitors of T. brucei phosphofructokinase: Mouse Liver Microsome Stability. Conditions: at 1 µM; hits give high values.

For the molecule `O=C(Cc1ccc(Cl)c(Cl)c1)Nc1ccc(S(=O)(=O)Nc2ccon2)cc1`, the half-life is 3.85 h.
